This note sets out measurements from US20120264735A1 (priority 2009, published 2012).

Some results are limits rather than exact numbers.

T1 sequence (P08581 25-1390): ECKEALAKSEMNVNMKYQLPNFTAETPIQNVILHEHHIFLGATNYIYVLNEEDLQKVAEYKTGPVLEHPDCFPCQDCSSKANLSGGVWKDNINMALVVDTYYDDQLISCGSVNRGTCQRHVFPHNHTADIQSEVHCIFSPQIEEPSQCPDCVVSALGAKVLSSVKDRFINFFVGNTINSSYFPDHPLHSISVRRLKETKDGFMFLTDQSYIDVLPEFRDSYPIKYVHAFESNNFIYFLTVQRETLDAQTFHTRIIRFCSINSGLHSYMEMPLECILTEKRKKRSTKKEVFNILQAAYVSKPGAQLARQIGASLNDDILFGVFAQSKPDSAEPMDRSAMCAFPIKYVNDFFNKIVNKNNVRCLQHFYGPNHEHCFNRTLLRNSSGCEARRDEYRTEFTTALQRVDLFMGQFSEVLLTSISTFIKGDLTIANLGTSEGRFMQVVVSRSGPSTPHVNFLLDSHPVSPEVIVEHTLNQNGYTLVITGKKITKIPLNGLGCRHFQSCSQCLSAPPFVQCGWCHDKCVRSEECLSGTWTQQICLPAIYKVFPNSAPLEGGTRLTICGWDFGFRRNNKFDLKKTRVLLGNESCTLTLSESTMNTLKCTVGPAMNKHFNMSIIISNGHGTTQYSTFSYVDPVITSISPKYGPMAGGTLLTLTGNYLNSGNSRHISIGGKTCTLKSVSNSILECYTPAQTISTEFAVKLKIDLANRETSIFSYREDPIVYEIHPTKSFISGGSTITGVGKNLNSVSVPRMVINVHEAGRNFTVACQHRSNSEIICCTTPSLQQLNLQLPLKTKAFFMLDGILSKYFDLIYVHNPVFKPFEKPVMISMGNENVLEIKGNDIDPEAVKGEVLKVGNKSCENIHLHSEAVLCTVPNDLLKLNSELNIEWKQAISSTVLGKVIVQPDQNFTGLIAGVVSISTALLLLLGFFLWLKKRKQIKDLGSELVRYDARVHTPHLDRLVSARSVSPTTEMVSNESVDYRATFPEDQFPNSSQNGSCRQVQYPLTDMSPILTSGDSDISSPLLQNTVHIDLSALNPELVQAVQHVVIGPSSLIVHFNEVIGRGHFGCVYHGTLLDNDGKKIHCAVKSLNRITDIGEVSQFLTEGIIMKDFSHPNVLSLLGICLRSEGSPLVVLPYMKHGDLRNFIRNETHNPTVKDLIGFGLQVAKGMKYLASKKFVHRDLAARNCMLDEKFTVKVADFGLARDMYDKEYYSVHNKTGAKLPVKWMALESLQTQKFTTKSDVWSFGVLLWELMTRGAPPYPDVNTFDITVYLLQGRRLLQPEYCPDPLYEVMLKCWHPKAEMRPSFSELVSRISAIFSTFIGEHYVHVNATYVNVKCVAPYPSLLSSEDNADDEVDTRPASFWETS

The assay concerns the target T1, c-Met kinase (recombinant c-Met) (Homo sapiens, UniProt P08581).
T1 construct: 0.27 nM recombinant c-Met
Put plainly: In vitro kinase assay I (homogeneous time-resolved fluorescence tyrosine kinase assay). It counts as biochemical. Put shortly: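 Biotinylated peptide (0.5 μM) phosphorylated by 0.2 nM recombinant c-Met with 50 μM MgATP, 60 min at room temperature, pH 7.4, 5% DMSO. EDTA stop; HTRF read with Eu-anti-phosphotyrosine antibody and streptavidin-APC. IC50 from 4-parameter logistic fit.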
What is called IC50 is the concentration that inhibits the measured activity by half. For the compound `CCOc1cnc(-c2cccc(C(CC)c3nn(-c4cnn(C)c4)ccc3=O)c2)nc1` (single isomer, unassigned) [Example 206, 3-{(1R or S)-1-[3-(5-ethoxypyrimidin-2-yl)phenyl]propyl}-1-(1-methyl-1H-pyrazol-4-yl)pyridazin-4(1H)-one], the IC50 is less than 100 nM.

With `Cn1cc(-n2ccc(=O)c(Cc3cccc(-c4ncc(C5C=CCO5)cn4)c3)n2)cn1` (racemic) [Example 174, rac-3-{3-[5-(2,5-Dihydrofuran-2-yl)pyrimidin-2-yl]benzyl}-1-(1-methyl-1H-pyrazol-4-yl)pyridazin-4(1H)-one], the IC50 was less than 100 nM.

With `COCCOC(=O)Nc1cccc(Cc2nn(-c3ccc(C#N)cc3)ccc2=O)c1` [Example 508, 2-methoxyethyl (3-{[1-(4-cyanophenyl)-4-oxo-1,4-dihydropyridazin-3-yl]methyl}phenyl)carbamate], the concentration for half-maximal inhibition (IC50) is less than 100 nM.

Regarding `O=C1CN(CCOC(=O)Nc2cccc(Cc3nn(-c4ccc(F)c(F)c4)ccc3=O)c2)CCN1` [Example 529, 2-(3-oxopiperazin-1-yl)ethyl (3-{[1-(3,4-difluorophenyl)-4-oxo-1,4-dihydropyridazin-3-yl]methyl}phenyl)carbamate], the IC50 is less than 100 nM.

In the case of `Cn1cc(-n2ccc(=O)c(Cc3cccc(-c4ncc(OCc5ccccn5)cn4)c3)n2)cn1` [Example 354, 1-(1-methyl-1H-pyrazol-4-yl)-3-{3-[5-(pyridin-2-ylmethoxy)pyrimidin-2-yl]benzyl}pyridazin-4(1H)-one], the IC50 was less than 100 nM.

As for `CCOCCOc1cnc(-c2cccc(Cc3nn(-c4cccc(C#N)c4)ccc3=O)c2)nc1` [Example 323, 3-[3-{3-[5-(2-ethoxyethoxy)pyrimidin-2-yl]benzyl}-4-oxopyridazin-1(4H)-yl]benzonitrile], the IC50 is less than 100 nM.

For `CCn1cnc(-c2cccc(Cc3nn(-c4cnn(C)c4)ccc3=O)c2)n1` [Example 708, 3-[3-(1-ethyl-1H-1,2,4-triazol-3-yl)benzyl]-1-(1-methyl-1H-pyrazol-4-yl)pyridazin-4(1H)-one], the IC50 was less than 100 nM.

Regarding `CC(c1cccc(-c2ncc(OC(F)F)cn2)c1)c1nn(-c2cnn(C)c2)ccc1=O` (single isomer, unassigned) [Example 210, 3-[(1R or S)-1-{3-[5-(difluoromethoxy)pyrimidin-2-yl]phenyl}ethyl]-1-(1-methyl-1H-pyrazol-4-yl)pyridazin-4(1H)-one], the IC50 was less than 100 nM.

For `CCOc1cnc(-c2cccc(Cc3nn(-c4cnn(CC(=O)N(C)C)c4)ccc3=O)c2)nc1` [Example 662, 2-(4-{3-[3-(5-ethoxypyrimidin-2-yl)benzyl]-4-oxopyridazin-1(4H)-yl}-1H-pyrazol-1-yl)-N,N-dimethylacetamide], the IC50 lay in the range of 100 to 1000 nM.

Take `CCOc1cnc(-c2cc(Cc3nn(-c4cnn(C)c4)ccc3=O)ccc2F)nc1` [Example 119, 3-[3-(5-ethoxypyrimidin-2-yl)-4-fluorobenzyl]-1-(1-methyl-1H-pyrazol-4-yl)pyridazin-4(1H)-one]: the IC50 fell in the range of 100 to 1000 nM.

On to `O=C(Nc1cccc(Cc2nn(-c3cc(F)cc(F)c3)ccc2=O)c1)OCC1CCOC1` (racemic) [Example 593, rac-tetrahydrofuran-3-ylmethyl-(3-{[1-(3,5-difluorophenyl)-4-oxo-1,4-dihydropyridazin-3-yl]methyl}phenyl)carbamate], for which the IC50 was less than 100 nM.

On to `CCOc1cnc(-c2cccc(Cc3nn(-c4cnn(C)c4)ccc3=O)c2)nc1` [Example 3, 3-[3-(5-Ethoxypyrimidin-2-yl)benzyl]-1-(1-methyl-1H-pyrazol-4-yl)pyridazin-4(1H)-one], for which the IC50 was less than 100 nM.

With `CCn1cc(-n2ccc(=O)c(C(C)c3cccc(-c4ncc(OCCn5cccn5)cn4)c3)n2)cn1` (single isomer, unassigned) [Example 303, 1-(1-ethyl-1H-pyrazol-4-yl)-3-[(1R or S)-1-(3-{5-[2-(1H-pyrazol-1-yl)ethoxy]pyrimidin-2-yl}phenyl)ethyl]pyridazin-4(1H)-one], the IC50 is less than 100 nM.

For the compound `CC1CCCN(c2cnc(-c3cccc(Cc4nn(-c5cnn(C)c5)ccc4=O)c3)nc2)C1` (racemic) [Example 469, rac-3-{3-[5-(3-methyl-piperidin-1-yl)pyrimidin-2-yl]benzyl}-1-(1-methyl-1H-pyrazol-4-yl)pyridazin-4(1H)-one], the IC50 is less than 100 nM.

For `CN(C)C(=O)CCOC(=O)Nc1cccc(Cc2nn(-c3cc(F)c(F)c(F)c3)ccc2=O)c1` [Example 561, 3-(dimethylamino)-3-oxopropyl (3-{[4-oxo-1-(3,4,5-trifluorophenyl)-1,4-dihydropyridazin-3-yl]methyl}phenyl)carbamate], the IC50 is less than 100 nM.

With `CC(c1cccc(-c2ncc(-c3cnn(C)c3)cn2)c1)c1nn(-c2cnn(C)c2)ccc1=O` (single isomer, unassigned) [Example 233, 1-(1-methyl-1H-pyrazol-4-yl)-3-[(1R or S)-1-{3-[5-(1-methyl-1H-pyrazol-4-yl)pyrimidin-2-yl]phenyl}ethyl]pyridazin-4(1H)-one], the IC50 was less than 100 nM.

For `COc1cnc(-c2cccc(Cc3nn(-c4cc(F)c(F)c(F)c4)ccc3=O)c2)nc1` [Example 9, 3-[3-(5-methoxypyrimidin-2-yl)benzyl]-1-(3,4,5-trifluorophenyl)pyridazin-4(1H)-one], the IC50 was less than 100 nM.

With `COc1cnc(-c2cccc(Cc3nn(-c4cncc(F)c4)ccc3=O)c2)nc1` [Example 36, 1-(5-fluoropyridin-3-yl)-3-[3-(5-methoxypyrimidin-2-yl)benzyl]pyridazin-4(1H)-one], the IC50 is less than 100 nM.

As to `CCn1cnc(-c2cccc(Cc3nn(-c4cccc(C(N)=O)c4)ccc3=O)c2)n1` [Example 734, 3-{3-[3-(1-Ethyl-1H-1,2,4-triazol-3-yl)benzyl]-4-oxopyridazin-1(4H)-yl}benzamide], the IC50 is less than 100 nM.

In the case of `CCOC(=O)c1cnc(-c2cccc(Cc3nn(-c4cnn(C)c4)ccc3=O)c2)o1` [Example 675, ethyl 2-(3-{[1-(1-methyl-1H-pyrazol-4-yl)-4-oxo-1,4-dihydropyridazin-3-yl]methyl}phenyl)-1,3-oxazole-5-carboxylate], the IC50 is 100 to 1000 nM.

For `CC1CCN(CCCOC(=O)Nc2cccc(Cc3nn(-c4cc(F)c(F)c(F)c4)ccc3=O)c2)CC1` [Example 553, 3-(4-methylpiperidin-1-yl)propyl (3-{[4-oxo-1-(3,4,5-trifluorophenyl)-1,4-dihydropyridazin-3-yl]methyl}phenyl)carbamate], the IC50 was less than 100 nM.

Turning to `Cn1cc(-n2ccc(=O)c(Cc3cccc(NC(=O)OCC4CCOC4)c3)n2)cn1` (racemic) [Example 542, rac-tetrahydrofuran-3-ylmethyl (3-{[1-(1-methyl-1H-pyrazol-4-yl)-4-oxo-1,4-dihydropyridazin-3-yl]methyl}phenyl)carbamate], the IC50 was less than 100 nM.

Regarding `O=C(Nc1cccc(Cc2nn(-c3cc(F)cc(F)c3)ccc2=O)c1)OCCN1CCS(=O)(=O)CC1` [Example 517, 2-(1,1-dioxidothio-morpholin-4-yl)ethyl (3-{[1-(3,5-difluorophenyl)-4-oxo-1,4-dihydropyridazin-3-yl]methyl}phenyl)carbamate], the IC50 was less than 100 nM.

Turning to `COCCCOc1cnc(-c2cccc(Cc3nn(-c4cccc(C#N)c4)ccc3=O)c2)nc1` [Example 322, 3-[3-{3-[5-(3-methoxypropoxy)pyrimidin-2-yl]benzyl}-4-oxopyridazin-1(4H)-yl]benzonitrile], the IC50 was less than 100 nM.

Regarding `Cn1cc(-n2ccc(=O)c(Cc3cccc(NC(=O)OCC4CCCOC4)c3)n2)cn1` (racemic) [Example 569, rac-tetrahydro-2H-pyran-3-ylmethyl (3-{[1-(1-methyl-1H-pyrazol-4-yl)-4-oxo-1,4-dihydropyridazin-3-yl]methyl}phenyl)carbamate], the IC50 is less than 100 nM.

Regarding `Cn1cc(-n2ccc(=O)c(Cc3cccc(-c4ncc(NC(=O)OC(C)(C)C)cn4)c3)n2)cn1` [Example 159, tert-butyl [2-(3-{[1-(1-methyl-1H-pyrazol-4-yl)-4-oxo-1,4-dihydropyridazin-3-yl]methyl}phenyl)pyrimidin-5-yl]carbamate], the IC50 was less than 100 nM.

In the case of `CC(c1cccc(-c2ncc(OCC(C)(C)O)cn2)c1)c1nn(-c2cnn(C)c2)ccc1=O` (single isomer, unassigned) [Example 381, 3-((1R or S)-1-{3-[5-(2-hydroxy-2-methylpropoxy)pyrimidin-2-yl]phenyl}ethyl)-1-(1-methyl-1H-pyrazol-4-yl)pyridazin-4(1H)-one], the IC50 is less than 100 nM.

`COC(C)(C)COc1cnc(-c2cccc(Cc3nn(-c4cnn(C)c4)ccc3=O)c2)nc1` [Example 267, 3-{3-[5-(2-methoxy-2-methylpropoxy)pyrimidin-2-yl]benzyl}-1-(1-methyl-1H-pyrazol-4-yl)pyridazin-4(1H)-one]: the IC50 is less than 100 nM.

Take `Cn1cc(-n2ccc(=O)c(Cc3cccc(-c4ncn(CCCC5CCCO5)n4)c3)n2)cn1` (racemic) [Example 721, rac-1-(1-methyl-1H-pyrazol-4-yl)-3-(3-{1-[3-(tetrahydrofuran-2-yl)propyl]-1H-1,2,4-triazol-3-yl}benzyl)pyridazin-4(1H)-one]: the IC50 was less than 100 nM.

As to `Cn1cc(-n2ccc(=O)c(Cc3cccc(-c4ncc(N5CCC(F)(F)C5)cn4)c3)n2)cn1` [Example 447, 3-{3-[5-(3,3-difluoropyrrolidin-1-yl)pyrimidin-2-yl]benzyl}-1-(1-methyl-1H-pyrazol-4-yl)pyridazin-4(1H)-one], the IC50 was less than 100 nM.

Take `C[C@H](O)[C@H](C)Oc1cnc(-c2cccc(Cc3nn(-c4cnn(C)c4)ccc3=O)c2)nc1` (single isomer, unassigned) [Example 375]: the IC50 was less than 100 nM.

On to `COc1cnc(-c2cccc(C(CO)c3nn(-c4cnn(C)c4)ccc3=O)c2)nc1` (racemic) [Example 254, rac-3-{2-Hydroxy-1-[3-(5-methoxypyrimidin-2-yl)phenyl]ethyl}-1-(1-methyl-1H-pyrazol-4-yl)pyridazin-4(1H)-one], for which the IC50 was 1000 to 3000 nM.
